From BindingDB's records for doi:10.7270/Q2N014XN (Srmlsc, 2007)
Structures can show the parent of a compound that is named as a salt.

These molecules were tested against T1, Diphosphomevalonate decarboxylase (Streptococcus pneumoniae serotype 2 (strain D39 / NCTC 7466), UniProt A0A0H2ZN59) (assay: diphosphomevalonate decarboxylase inhibition dose curves – biochemical, PK/LDH-coupled NADH fluorescence, hexokinase coupling counter-screen, dose response (AID 550)). Details: not given.
T1 sequence (A0A0H2ZN59 whole entry): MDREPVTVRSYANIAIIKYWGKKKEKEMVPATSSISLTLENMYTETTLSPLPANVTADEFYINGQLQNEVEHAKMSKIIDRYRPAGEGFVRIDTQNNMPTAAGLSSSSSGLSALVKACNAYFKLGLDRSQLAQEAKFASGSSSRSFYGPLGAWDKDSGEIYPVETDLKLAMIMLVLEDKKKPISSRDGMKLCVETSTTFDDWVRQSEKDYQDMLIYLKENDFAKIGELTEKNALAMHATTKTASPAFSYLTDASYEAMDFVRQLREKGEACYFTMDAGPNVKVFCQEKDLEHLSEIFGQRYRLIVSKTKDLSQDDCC

Structure (SMILES) | IC50 [µM]
Cn1c(-c2ccc(N)cc2)nc2ccccc21 [4-(1-methyl-2-benzimidazolyl)aniline] | > 10000
Cn1c(N2CCOCC2)nc(-c2ccccc2)c1-c1ccccc1 [4-(1-methyl-4,5-diphenyl-2-imidazolyl)morpholine] | 40.8
CCCCC(=O)Nc1ccc(C(N)=O)cc1 [4-(1-oxopentylamino)benzamide] | > 10000
Cc1cc(C)n2nc3nc(N4CCCCC4)nc(-c4ccco4)c3c2n1 [4-(2-furyl)-6,8-dimethyl-2-piperidin-1-ylpyrimido[4',5':3,4]pyrazolo[1,5-a]pyrimidine] | 111
COC(=O)c1cc(Cl)c(NS(=O)(=O)c2ccccc2)cc1OC [4-(benzenesulfonamido)-5-chloro-2-methoxy-benzoic acid methyl ester] | 32.2
CCOC(=O)N1CCN(C(=O)c2cn(CC)c3cc(N4CCN(C)CC4)c(F)cc3c2=O)CC1 [4-[1-ethyl-6-fluoro-4-keto-7-(4-methylpiperazino)quinoline-3-carbonyl]piperazine-1-carboxylic acid ethyl ester;hydrochloride] | 50.6
O=C(CN1CCCC1)N1CCCc2c1c(=O)oc1ccc(OCc3ccccc3)cc21 [4-[1-oxo-2-(1-pyrrolidinyl)ethyl]-9-phenylmethoxy-2,3-dihydro-1H-[1]benzopyrano[3,4-b]pyridin-5-one] | 24.7
COC(=O)c1cc2occc2n1CC(=O)Nc1ccc(OC)c(OC)c1OC [4-[2-keto-2-(2,3,4-trimethoxyanilino)ethyl]furo[3,2-b]pyrrole-5-carboxylic acid methyl ester] | > 10000
COc1ccccc1-c1nnc2sc(-c3ccc(N(C)C)cc3)nn12 [4-[3-(2-methoxyphenyl)-[1,2,4]triazolo[3,4-b][1,3,4]thiadiazol-6-yl]-N,N-dimethyl-aniline] | 16.3
CCOC(=O)N1CCN(C(=O)CCc2c(C)nc3c(c(C)nn3-c3ccc(C)c(C)c3)c2C)CC1 [4-[3-[1-(3,4-dimethylphenyl)-3,4,6-trimethyl-5-pyrazolo[3,4-b]pyridinyl]-1-oxopropyl]-1-piperazinecarboxylic acid ethyl ester] | 27.8
CCOC(=O)N1CCC(NC(=O)CSc2cc(=O)n(C)c3ccccc23)CC1 [4-[[2-[(1-methyl-2-oxo-4-quinolinyl)thio]-1-oxoethyl]amino]-1-piperidinecarboxylic acid ethyl ester] | 399
COC(=O)c1ccc(Nc2cc(C)nc(-c3ccccc3O)n2)cc1 [4-[[(2E)-2-(6-ketocyclohexa-2,4-dien-1-ylidene)-6-methyl-1H-pyrimidin-4-yl]amino]benzoic acid methyl ester] | 18.6
CCOc1ccc(C(=O)O)cc1OC [4-ethoxy-3-methoxy-benzoic acid] | > 10000
CCOC(=O)c1cc2c(=O)n(C)c3ccccc3c2s1 [4-keto-5-methyl-thieno[3,2-c]quinoline-2-carboxylic acid ethyl ester] | > 10000
Cc1cc(=O)oc2ccc(OCC(=O)N3CCC(C)CC3)cc12 [4-methyl-6-[2-(4-methyl-1-piperidinyl)-2-oxoethoxy]-1-benzopyran-2-one] | 213
O=C(NCc1cccnc1)c1ccc2c(=O)n(CCCN3CCCC3=O)c(=S)[nH]c2c1 [4-oxidanylidene-3-[3-(2-oxidanylidenepyrrolidin-1-yl)propyl]-N-(pyridin-3-ylmethyl)-2-sulfanylidene-1H-quinazoline-7-carboxamide] | > 10000
Cc1c2ccncc2c(C)c2c1[nH]c1ccccc12 [5,11-dimethyl-2H-pyrido[4,3-b]carbazole] | 119

Same assay, conditions: inactive by the depositor's call

Structure (SMILES) | IC50 [µM]
CCN(CC)c1ccc(C=Nn2c(=S)[nH]nc(C)c2=O)cc1 [4-[[4-(diethylamino)phenyl]methylideneamino]-6-methyl-3-sulfanylidene-2H-1,2,4-triazin-5-one] | 20.2
Nc1cccc2c1C(=O)N(c1ccccc1)C2=O [4-azanyl-2-phenyl-isoindole-1,3-dione] | 60.5
